Experimental data as given in patent US9062088B2, “CDK-inhibiting pyrrolopyrimidine carboxamide derivative or pharmaceutically acceptable salt thereof, and pharmaceutical composition containing the same as active ingredient for preventing or treating hepatocellular carcinoma” (SNU R&DB Foundation, priority 2010, dated 2015).
“And” between values parts separate entries of the source, which are not always exact repeats. Equal entries are not always repeated.

Experiments:
Cdk7/cyclin H/MAT1 = target: T1, Cdk7/cyclin H/MAT1 (Homo sapiens, UniProt P50613); test: In vitro kinase assay of Cdk7, RNA Pol II-CTD-GST substrate; assay type: biochemical; settings: 0 nM = 100
T1 construct: purchased Upstate
Procedure: (§1) To kinase assay buffer were added RNA Pol II-CTD-GST protein (Jena Bioscience, Germany) as a substrate, Cdk9/cyclin T1 or Cdk7/cyclin H/MAT1 recombinant protein (Upstate) as an enzyme, 2.5 μCi [γ-32P]ATP, and 100 μM MgAc/ATP. The total reaction volume was adjusted to 50 μl. Kinase assay reaction was induced at 30° C. for 20 minutes. Upon completion of the reaction, electrophoresis was performed on 8% SDS-polyacrylamide gel. The activities of Cdk7 and Cdk9 over the concentrations of the compounds of Example 1 and Example 2 were confirmed by autoradiography and the results are shown in FIG. 5˜FIG. 8 and Table 3.
(§2) The intensity of bands was analyzed by densitometry (GS-800, Bio-Rad).

Cdk7 = test: Western blotting of Cdk7 activity (phospho RNA Pol II Ser 5); assay type: cell-based, human; settings: 0 nM = 100
Procedure: (§3) After treating the compound of Example 2 to SNU-354 cells, cell pellet was lysed with lysis buffer (0.5% triton X-100, 20 mM Tris-HCl (pH 7.5), 2 mM magnesium chloride, 1 mM DTT, 1 mM EGTA, 50 mM β-glycerophosphate, 25 mM sodium fluoride, 1 mM Na3VO4, 2 μg/mL leupeptin, 2 μg/mL pepstatin A, 100 μg/mL phenylmethylsulfonyl fluoride, and 1 μg/mL antipain) at 4° C. for 1 hour, followed by quantification of protein. A proper amount of protein was electrophoresed on SDS-PAGE gel and then transferred onto polyvinylidene difluoride membrane (Millipore Co., Bedford, Mass.). The membrane was reacted in inhibiting solution (PBS, 5% skim milk, 0.1% tween-20) at room temperature for 1˜2 hours. The membrane was reacted with the primary antibody (goat anti-phospho-Rb, rabbit anti-nucleolin) diluted in the inhibiting solution (1:1000). Then, the membrane was washed with PBST, followed by reaction with the proper secondary antibody (horseradish peroxidase (HRP) conjugated) at room temperature for 1 hour.
(§4) Experiment was performed by the same manner as described in step 2 of Experimental Example 1 except that rabbit anti-phospho RNA Pol II (Ser 5) and rabbit anti-phospho RNA Pol II (Ser 2) (from Bethyl, TX, USA) were used as primary antibodies. The results are shown FIG. 9˜FIG. 12, and Table 4 and Table 5.

Cdk9 = test: Western blotting of Cdk9 activity (phospho RNA Pol II Ser 2); assay type: cell-based, human; settings: 0 nM = 100
Procedure: as §3, §4

SNU-354 cells [1] = test: 3H-thymidine incorporation assay; assay type: cell-based, human; settings: 18˜24 hours
Procedure: SNU-354 cells were distributed in a 6-well plate at the density of 5×10^4 cells/well, followed by culture in FBS-free medium for 24 hours. 24 hours later, the medium was replaced with the fresh one supplemented with FBS, the compounds of Examples 1 and 2 at different concentrations and 1 μCi/mL [^3H]dT (GE Healthcare, UK). 18˜24 hours later, the cells were washed with cold PBS and then fixed with cold 5% trichloroacetic acid. DNA was lysed in […] sodium hydroxide at 37° C. for 1 hour. Then, [^3H]dT incorporated during intracellular DNA synthesis was measured by LSC (liquid scintillation counting). Intracellular DNA synthesis measured above was used as index for the evaluation of cell viability.

Cdk9/cyclin T1 = target: T2, Cdk9/cyclin T1 (Homo sapiens, UniProt P50750); test: In vitro kinase assay of Cdk9, RNA Pol II-CTD-GST substrate; assay type: biochemical; settings: 0 nM = 100
T2 construct: purchased Upstate
Procedure: as §1, §2

SNU-354 cells [2] = test: MTT assay, cell viability; assay type: cell-based; settings: Homo sapiens, SNU-354, read-out: Cell viability (%)
Procedure: Cell viability was measured by MTT assay. SNU-354 cells in the log phase of cell growth curve were distributed in a 24-well plate at the density of 2×10^4 cells/well. […] After allowing enough time for reaction, MTT reagent (MTT dissolved in PBS at the concentration of 5 mg/mL) (Sigma-Aldrich, USA) was added to each well, followed by reaction at 37° C. for 3 hours. Then, the supernatant was eliminated and the precipitated formazan crystals were dissolved in dimethyl sulfoxide, followed by measurement of absorbance with ELISA plate reader.

SNU-354 cells [3] = test: Flow cytometry, sub G1 ratio change (Experimental Example 3); assay type: cell-based, human; settings: 10 μM, 24 hours, vehicle = 1.0
Procedure: SNU-354 cells were seeded in a 90 mm dish, to which vehicle and the compounds of Examples 2˜6 were treated at the concentration of 10 μM each for 24 hours. The cells were collected and washed with cold PBS, followed by reaction in 500 μl of cold 70% ethanol at 4° C. for overnight to fix the cells. The cells were washed with 500 μl of PBS three times, followed by reaction with 500 μl of PBS containing 50 μg/mL propidium iodide (P1) and 50 μl of 1 mg/mL RNAse A at room temperature for 30 minutes in the darkness. Fluorescence of the P1 stained cell was measured by using FACS caliber flow cytometer and cell quest program (Becton Dickinson Immunocytometry Systems, CA, USA). Sub G1 ratio changes of SNU-354 cells induced by the compounds were measured by FACS analysis.

[4] = test system: caspase-3 activity in SNU-354 cells; test: Measurement of caspase-3 activity (Experimental Example 4); assay type: cell-based, human; parameters: unit not given here
Procedure: SNU-354 cells treated with the compounds of Example 1˜Example 6 were lysed with lysis buffer (0.5% triton X-100, 20 mM Tris-HCl (pH 7.5), 2 mM magnesium chloride, 1 mM DTT, 1 mM EGTA, 50 mM β-glycerophosphate, 25 mM sodium fluoride, 1 mM Na3VO4, 2 μg/mL leupeptin, 2 μg/mL pepstatin A, 100 μg/mL phenylmethylsulfonyl fluoride, 1 μg/mL antipain). The protease analysis buffer necessary for the reaction (20 mM HEPES (pH 7.5), 10% glycerol, 2 mM DTT) was mixed with 20 μM Ac-DEVD-AMC (BD Biosciences, CA, USA) and cell lysates, followed by reaction at 37° C. for 1 hour. Upon completion of the reaction, caspase-3 activity was measured at 380 nm of excitation and 460 nm of emission with spectrofluorometer (TECAN, Switzerland) and the results are shown in FIG. 25 and Table 12.

T1 sequence (P50613 whole entry): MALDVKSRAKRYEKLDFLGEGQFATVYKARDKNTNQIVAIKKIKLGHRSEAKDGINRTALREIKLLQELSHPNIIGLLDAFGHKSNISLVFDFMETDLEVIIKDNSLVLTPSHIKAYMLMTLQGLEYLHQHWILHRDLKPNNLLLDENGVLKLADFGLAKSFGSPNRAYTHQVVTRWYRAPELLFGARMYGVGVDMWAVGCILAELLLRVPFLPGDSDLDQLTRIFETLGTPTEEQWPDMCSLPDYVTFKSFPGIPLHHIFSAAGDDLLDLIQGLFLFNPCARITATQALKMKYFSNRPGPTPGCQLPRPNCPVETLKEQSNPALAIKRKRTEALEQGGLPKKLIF
T1 sequence (P51946 whole entry partner): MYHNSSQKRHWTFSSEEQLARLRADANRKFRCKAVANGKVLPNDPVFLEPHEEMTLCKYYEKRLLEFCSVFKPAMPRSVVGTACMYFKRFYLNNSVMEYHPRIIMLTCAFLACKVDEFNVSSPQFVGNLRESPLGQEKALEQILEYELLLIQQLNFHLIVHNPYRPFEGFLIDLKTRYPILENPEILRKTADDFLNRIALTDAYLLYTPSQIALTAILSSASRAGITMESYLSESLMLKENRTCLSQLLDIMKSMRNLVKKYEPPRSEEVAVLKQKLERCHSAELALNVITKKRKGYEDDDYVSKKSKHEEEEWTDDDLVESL
T1 sequence (P51948 whole entry partner): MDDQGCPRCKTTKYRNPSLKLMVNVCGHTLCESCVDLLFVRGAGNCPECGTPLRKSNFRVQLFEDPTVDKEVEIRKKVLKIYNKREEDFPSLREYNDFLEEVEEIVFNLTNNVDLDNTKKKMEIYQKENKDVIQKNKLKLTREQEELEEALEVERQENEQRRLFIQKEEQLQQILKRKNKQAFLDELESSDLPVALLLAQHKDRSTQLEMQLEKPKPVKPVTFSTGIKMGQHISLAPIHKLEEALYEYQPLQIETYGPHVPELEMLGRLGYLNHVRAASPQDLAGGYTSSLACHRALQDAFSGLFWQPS
T2 sequence (P50750 whole entry): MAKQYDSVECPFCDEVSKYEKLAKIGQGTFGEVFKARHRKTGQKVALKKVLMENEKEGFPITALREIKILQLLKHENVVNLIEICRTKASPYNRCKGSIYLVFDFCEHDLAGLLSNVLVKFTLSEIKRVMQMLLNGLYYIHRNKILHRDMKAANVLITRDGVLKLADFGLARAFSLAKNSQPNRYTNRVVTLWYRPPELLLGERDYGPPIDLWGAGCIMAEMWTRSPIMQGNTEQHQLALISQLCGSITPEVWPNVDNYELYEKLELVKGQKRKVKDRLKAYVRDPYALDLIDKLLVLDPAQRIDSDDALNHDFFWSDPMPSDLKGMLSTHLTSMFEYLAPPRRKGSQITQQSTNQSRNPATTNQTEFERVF
T2 sequence (O60563 whole entry partner): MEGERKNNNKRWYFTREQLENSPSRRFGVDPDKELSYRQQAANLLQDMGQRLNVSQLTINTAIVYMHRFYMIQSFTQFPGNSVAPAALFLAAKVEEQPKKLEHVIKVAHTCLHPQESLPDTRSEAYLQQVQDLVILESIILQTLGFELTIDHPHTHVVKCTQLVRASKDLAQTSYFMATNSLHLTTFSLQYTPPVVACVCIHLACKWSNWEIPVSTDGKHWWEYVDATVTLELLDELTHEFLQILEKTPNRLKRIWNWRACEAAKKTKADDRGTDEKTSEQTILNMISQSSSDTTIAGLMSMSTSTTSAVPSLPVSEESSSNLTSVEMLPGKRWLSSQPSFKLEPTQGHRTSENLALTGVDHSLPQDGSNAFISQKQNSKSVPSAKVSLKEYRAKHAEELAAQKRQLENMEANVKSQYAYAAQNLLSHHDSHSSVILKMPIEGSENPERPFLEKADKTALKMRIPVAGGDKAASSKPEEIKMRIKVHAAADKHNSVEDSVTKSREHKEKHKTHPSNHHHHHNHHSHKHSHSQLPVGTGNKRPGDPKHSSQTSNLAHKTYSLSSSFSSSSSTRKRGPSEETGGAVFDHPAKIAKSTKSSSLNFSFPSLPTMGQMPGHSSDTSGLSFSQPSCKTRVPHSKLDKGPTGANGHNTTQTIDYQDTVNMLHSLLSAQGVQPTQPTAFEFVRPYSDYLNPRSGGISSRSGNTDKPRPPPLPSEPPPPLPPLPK

CC[C@H](CO)Nc1nc(NCc2ccccc2)c2ncn(C(C)C)c2n1 [Roscosvitine, roscosvitine, reference compound]
Cdk7 activity (Cdk7/cyclin H/MAT1; 10 nM): 92.0%
Cdk7 activity (Cdk7/cyclin H/MAT1; 100 nM): 43.4%
Cdk7 activity (Cdk7/cyclin H/MAT1; 1000 nM): 17.4%
Cdk7 activity (Cdk7; 0.1 nM): 96.0%
Cdk7 activity (Cdk7; 0.5 nM): 73.1%
Cdk7 activity (Cdk7; 1 nM): 51.5%
Cdk7 activity (Cdk7; 5 nM): 51.6%
Cdk7 activity (Cdk7; 10 nM): 49.9%
Cdk7 activity (Cdk7; 50 nM): 4.0%
Cdk9 activity (Cdk9; 0.1 nM): 69.3%
Cdk9 activity (Cdk9; 0.5 nM): 48.5%
Cdk9 activity (Cdk9; 1 nM): 38.1%
Cdk9 activity (Cdk9; 5 nM): 35.7%
Cdk9 activity (Cdk9; 10 nM): 34.6%
Cdk9 activity (Cdk9; 50 nM): 2.2%
^3H-thymidine incorporation (%) (SNU-354 cells [1]; 5.0 μM): 98.2%
^3H-thymidine incorporation (%) (SNU-354 cells [1]; 10.0 μM): 91.0%
^3H-thymidine incorporation (%) (SNU-354 cells [1]; 50.0 μM): 47.2%
Cdk9 activity (Cdk9/cyclin T1; 10 nM): 55.6%
Cdk9 activity (Cdk9/cyclin T1; 100 nM): 44.6%
Cdk9 activity (Cdk9/cyclin T1; 1000 nM): 42.2%

Cn1cnc2c(NCc3ccccc3)nc(NCCO)nc21 [Olomoucine, olomoucine, reference compound]
viability at 0.5 µM (SNU-354 cells [2]): 98.9%
viability at 1 µM (SNU-354 cells [2]): 99.9%
viability at 2 µM (SNU-354 cells [2]): 99.9%
viability at 5 µM (SNU-354 cells [2]): 98.5%
viability at 10 µM (SNU-354 cells [2]): 101%
viability at 50 µM (SNU-354 cells [2]): 96%
^3H-thymidine incorporation (%) (SNU-354 cells [1]; 5.0 μM): 99.7%
^3H-thymidine incorporation (%) (SNU-354 cells [1]; 10.0 μM): 96.3%
^3H-thymidine incorporation (%) (SNU-354 cells [1]; 50.0 μM): 77.2%

CC(=O)O[C@H]1[C@H](OC(C)=O)[C@@H](n2cnc(N)c3c(C(N)=O)c(Br)nc2-3)O[C@H]1COC(=O)C(C)C [Example 4, (2S,3S,4R,5S)-2-(4-amino-6-bromo-5-carbamoyl-1H-pyrrolo[2,3-d]pyrimidin-1-yl)-5-(isobutyryloxymethyl)tetrahydrofuran-3,4-diyl diacetate]
sub G1 ratio change (SNU-354 cells [3]): 5.5
Caspase-3 activity ([4]; 5 μM): 5.1
Caspase-3 activity ([4]; 10 μM): 7.0

CC(C)(C)C(=O)OC[C@@H]1O[C@H](n2cnc(N)c3c(C(N)=O)c(Br)nc2-3)[C@H](O)[C@H]1O [Example 3, ((2S,3R,4R,5S)-5-(4-amino-6-bromo-5-carbamoyl-1H-pyrrolo[2,3-d]pyrimidin-1-yl)-3,4-dihydroxy-tetrahydrofuran-2-yl)methyl pivalate]
sub G1 ratio change (SNU-354 cells [3]): 5.7
Caspase-3 activity ([4]; 5 μM): 8.2
Caspase-3 activity ([4]; 10 μM): 7.8

CCC(=O)OC[C@@H]1O[C@H](n2c(Br)c(C(N)=O)c3c(N)ncnc32)[C@@H](O)[C@@H]1O [Example 6, ((2S,3S,4S,5S)-5-(4-amino-6-bromo-5-carbamoyl-7H-pyrrolo[2,3-d]pyrimidin-7-yl)-3,4-dihydroxytetrahydrofuran-2-yl)methyl propionate]
sub G1 ratio change (SNU-354 cells [3]): 5.9
Caspase-3 activity ([4]; 5 μM): 10.7
Caspase-3 activity ([4]; 10 μM): 11.7

NC(=O)c1c(Br)n([C@H]2O[C@@H](COC(=O)c3ccccc3)[C@@H](O)[C@@H]2O)c2ncnc(N)c12 [Example 5, ((2S,3S,4S,5S)-5-(4-amino-6-bromo-5-carbamoyl-7H-pyrrolo[2,3-d]pyrimidin-7-yl)-3,4-dihydroxytetrahydrofuran-2-yl)methyl benzoate]
sub G1 ratio change (SNU-354 cells [3]): 5.5 and 6.0
Caspase-3 activity ([4]; 5 μM): 9.0
Caspase-3 activity ([4]; 10 μM): 10.3
